For this assay, the system named is MV-4-11 cells. Description: Gene expression microarray analysis (Affymetrix PrimeView) and GSEA. More on the design: RFU PODN (11730768_x_at) / Fold change /veh PODN (11730768_x_at) / RFU LINC00158 (11744669_a_at) / Fold change /veh LINC00158 (11744669_a_at) / RFU DUSP10 (11751237_a_at) / Fold change /veh DUSP10 (11751237_a_at) / RFU ID3 (11757404_x_at) / Fold change /veh ID3 (11757404_x_at) / RFU PLEKHG5 (11737974_s_at) / Fold change /veh PLEKHG5 (11737974_s_at) / RFU LRRC4B (11730491_at) / Fold change /veh LRRC4B (11730491_at) / RFU GIMAP4 (11747438_a_at) / Fold change /veh GIMAP4 (11747438_a_at) / RFU KRT8 (11758183_x_at) / Fold change /veh KRT8 (11758183_x_at) / RFU CNN1 (11734310_a_at) / Fold change /veh CNN1 (11734310_a_at) / RFU VPS37D (11726825_at) / Fold change /veh VPS37D (11726825_at) / RFU C10orf10 (11716522_x_at) / Fold change /veh C10orf10 (11716522_x_at) / RFU KIR2DL2 /// KIR2DL4 /// KIR2DL5A /// KIR2DL5B /// KIR2DS1 /// KIR2DS2 /// KIR2DS3 /// KIR2DS4 /// KIR3DL3 /// KIR3DL3 /// KIR3DS1 (11738374_at) / Fold change /veh KIR2DL2 /// KIR2DL4 /// KIR2DL5A /// KIR2DL5B /// KIR2DS1 /// KIR2DS2 /// KIR2DS3 /// KIR2DS4 /// KIR3DL3 /// KIR3DL3 /// KIR3DS1 (11738374_at) / RFU C1QL1 (11718748_at) / Fold change /veh C1QL1 (11718748_at) / RFU TMPRSS4 (11747572_a_at) / Fold change /veh TMPRSS4 (11747572_a_at) / RFU HAMP (11756126_x_at) / Fold change /veh HAMP (11756126_x_at) / RFU RNFT2 (11725882_a_at) / Fold change /veh RNFT2 (11725882_a_at) / RFU NR4A2 (11747474_a_at) / Fold change /veh NR4A2 (11747474_a_at) / RFU ABCC12 (11746883_a_at) / Fold change /veh ABCC12 (11746883_a_at) / RFU TMEM136 (11760407_x_at) / Fold change /veh TMEM136 (11760407_x_at) / RFU CLDN22 /// WWC2 (11732394_at) / Fold change /veh CLDN22 /// WWC2 (11732394_at) / RFU HLA-DPB1 (11760878_x_at) / Fold change /veh HLA-DPB1 (11760878_x_at) / RFU SPINT1 (11716480_a_at) / Fold change /veh SPINT1 (11716480_a_at) / RFU GAP43 (11754022_s_at) / Fold change /veh GAP43 (11754022_s_at) / RFU A4GNT (11735810_at) / Fold change /veh A4GNT (11735810_at) / RFU PRB3 (11715151_x_at) / Fold change /veh PRB3 (11715151_x_at) / RFU TUBB4B (11761932_at) / Fold change /veh TUBB4B (11761932_at) / RFU CAPN14 (11732068_a_at) / Fold change /veh CAPN14 (11732068_a_at) / RFU TMCC2 (11721928_a_at) / Fold change /veh TMCC2 (11721928_a_at) / RFU IRGQ (11745062_a_at) / Fold change /veh IRGQ (11745062_a_at) / RFU FAM174B (11720279_a_at) / Fold change /veh FAM174B (11720279_a_at) / RFU TMPRSS4 (11748680_a_at) / Fold change /veh TMPRSS4 (11748680_a_at) / RFU FAM212B (11763350_a_at) / Fold change /veh FAM212B (11763350_a_at) / RFU PLEKHG5 (11743358_a_at) / Fold change /veh PLEKHG5 (11743358_a_at) / RFU ZSCAN30 (11745921_a_at) / Fold change /veh ZSCAN30 (11745921_a_at) / RFU CMKLR1 (11741424_a_at) / Fold change /veh CMKLR1 (11741424_a_at) / RFU LOC101060620 /// MAPK8IP1 (11723275_at) / Fold change /veh LOC101060620 /// MAPK8IP1 (11723275_at) / RFU SPTSSB (11747773_x_at) / Fold change /veh SPTSSB (11747773_x_at) / RFU PRSS12 (11739890_at) / Fold change /veh PRSS12 (11739890_at) / RFU BIN1 (11741810_x_at) / Fold change /veh BIN1 (11741810_x_at) / RFU WNT11 (11732464_a_at) / Fold change /veh WNT11 (11732464_a_at) / RFU C10orf10 (11716521_a_at) / Fold change /veh C10orf10 (11716521_a_at) / RFU C5orf56 (11738089_at) / Fold change /veh C5orf56 (11738089_at) / RFU CYB561 (11721691_x_at) / Fold change /veh CYB561 (11721691_x_at) / RFU ANKRD19P (11752326_a_at) / Fold change /veh ANKRD19P (11752326_a_at) / RFU OR2T12 /// OR2T33 /// OR2T8 (11738714_s_at) / Fold change /veh OR2T12 /// OR2T33 /// OR2T8 (11738714_s_at) / RFU VCAN (11748164_a_at) / Fold change /veh VCAN (11748164_a_at) / RFU JSRP1 (11732532_at) / Fold change /veh JSRP1 (11732532_at) / RFU KRTAP10-11 (11738290_x_at) / Fold change /veh KRTAP10-11 (11738290_x_at) / RFU MYO3A (11730013_a_at) / Fold change /veh MYO3A (11730013_a_at) / RFU EBF3 (11725865_a_at) / Fold change /veh EBF3 (11725865_a_at) / RFU CAMK2N1 (11719241_x_at) / Fold change /veh CAMK2N1 (11719241_x_at) / RFU C5orf56 (11738088_a_at) / Fold change /veh C5orf56 (11738088_a_at) / RFU OLFML3 (11715873_a_at) / Fold change /veh OLFML3 (11715873_a_at) / RFU LOC100653217 /// NTM (11731650_a_at) / Fold change /veh LOC100653217 /// NTM (11731650_a_at) / RFU MAPK11 (11762145_a_at) / Fold change /veh MAPK11 (11762145_a_at) / RFU FIZ1 (11724087_x_at) / Fold change /veh FIZ1 (11724087_x_at) / RFU OASL (11726364_x_at) / Fold change /veh OASL (11726364_x_at) / RFU SOX15 (11748057_x_at) / Fold change /veh SOX15 (11748057_x_at) / RFU CD79A (11719716_a_at) / Fold change /veh CD79A (11719716_a_at) / RFU HIST1H1D (11736915_at) / Fold change /veh HIST1H1D (11736915_at) / RFU CASKIN2 (11723855_a_at) / Fold change /veh CASKIN2 (11723855_a_at) / RFU LOC730098 (11760151_x_at) / Fold change /veh LOC730098 (11760151_x_at) / RFU OR4N2 (11742367_at) / Fold change /veh OR4N2 (11742367_at) / RFU PRRT2 (11749266_a_at) / Fold change /veh PRRT2 (11749266_a_at) / RFU SNX32 (11753110_a_at) / Fold change /veh SNX32 (11753110_a_at) / RFU CDHR5 (11726645_a_at) / Fold change /veh CDHR5 (11726645_a_at) / RFU RCAN1 (11760418_a_at) / Fold change /veh RCAN1 (11760418_a_at) / RFU FAM167A (11723789_a_at) / Fold change /veh FAM167A (11723789_a_at) / RFU FAM26E (11764081_at) / Fold change /veh FAM26E (11764081_at) / RFU ISYNA1 (11749810_s_at) / Fold change /veh ISYNA1 (11749810_s_at) / RFU ACY1 (11761880_at) / Fold change /veh ACY1 (11761880_at) / RFU 11764098_at / Fold change /veh 11764098_at / RFU SAMD14 (11745864_x_at) / Fold change /veh SAMD14 (11745864_x_at) / RFU NPB (11741838_a_at) / Fold change /veh NPB (11741838_a_at) / RFU TMPRSS6 (11731388_a_at) / Fold change /veh TMPRSS6 (11731388_a_at) / RFU KRTAP10-2 (11738614_at) / Fold change /veh KRTAP10-2 (11738614_at) / RFU ARHGAP8 /// PRR5-ARHGAP8 (11727945_x_at) / Fold change /veh ARHGAP8 /// PRR5-ARHGAP8 (11727945_x_at) / RFU KRTAP5-7 /// NADSYN1 (11734609_at) / Fold change /veh KRTAP5-7 /// NADSYN1 (11734609_at) / RFU RASL12 (11751679_a_at) / Fold change /veh RASL12 (11751679_a_at) / RFU CDKN2B (11736163_a_at) / Fold change /veh CDKN2B (11736163_a_at) / RFU PRF1 (11729649_at) / Fold change /veh PRF1 (11729649_at) / RFU, ZNF638 /// ZNF638-IT1 / Fold change vs veh, ZNF638 /// ZNF638-IT1 / RFU, PANK3 / Fold change vs veh, PANK3 / RFU, SH3YL1 / Fold change vs veh, SH3YL1 / RFU, ZEB2 / Fold change vs veh, ZEB2 / RFU, NRIP1 / Fold change vs veh, NRIP1 / RFU, PTTG1IP / Fold change vs veh, PTTG1IP / RFU, CAPN2 / Fold change vs veh, CAPN2 / RFU, MED14 / Fold change vs veh, MED14 / RFU, SNORA58 / Fold change vs veh, SNORA58 / RFU, C1orf63 / Fold change vs veh, C1orf63 / RFU, LRRFIP1 / Fold change vs veh, LRRFIP1 / RFU, NDUFAF7 / Fold change vs veh, NDUFAF7 / RFU, SLC12A2 / Fold change vs veh, SLC12A2 / RFU, IBTK / Fold change vs veh, IBTK / RFU, ESF1 / Fold change vs veh, ESF1 / Fold change vs veh, TMEM50B / RFU, TAOK1 / Fold change vs veh, TAOK1 / RFU, ACBD3 / Fold change vs veh, ACBD3 / RFU, TMA16 / Fold change vs veh, TMA16 / RFU, RWDD3 / Fold change vs veh, RWDD3 / RFU, BCAT1 / Fold change vs veh, BCAT1 / RFU, EDEM3 / Fold change vs veh, EDEM3 / RFU, TMEM33 / Fold change vs veh, TMEM33 / RFU, WDR75 / Fold change vs veh, WDR75 / RFU, AHCTF1 / Fold change vs veh, AHCTF1 / RFU, TFRC / Fold change vs veh, TFRC / RFU, ZDHHC17 / Fold change vs veh, ZDHHC17 / RFU, NOM1 / Fold change vs veh, NOM1 / RFU, ARL8B / Fold change vs veh, ARL8B / RFU, ZBTB11 / Fold change vs veh, ZBTB11 / RFU, TAMM41 / Fold change vs veh, TAMM41 / RFU, KIAA1704 /// LOC100996395 / Fold change vs veh, KIAA1704 /// LOC100996395 / RFU, ING1 / Fold change vs veh, ING1 / RFU, TRMT61B / Fold change vs veh, TRMT61B / RFU, FUBP3 / Fold change vs veh, FUBP3 / RFU, TP53 / Fold change vs veh, TP53 / RFU, TNKS2 / Fold change vs veh, TNKS2 / RFU, ZFP14 / Fold change vs veh, ZFP14 / RFU, ACTR2 / Fold change vs veh, ACTR2 / RFU, PPP3R1 / Fold change vs veh, PPP3R1 / RFU, PIK3R1 / Fold change vs veh, PIK3R1 / RFU, HNRNPA1 / Fold change vs veh, HNRNPA1 / RFU, RNF170 / Fold change vs veh, RNF170 / RFU, ZNF28 / Fold change vs veh, ZNF28 / RFU, RNGTT / Fold change vs veh, RNGTT / RFU, OGT / Fold change vs veh, OGT / RFU, BRD1 / Fold change vs veh, BRD1 / RFU, MARS / Fold change vs veh, MARS / RFU, ZNF655 / Fold change vs veh, ZNF655 / RFU, FAHD1 / Fold change vs veh, FAHD1 / RFU, BDP1 / Fold change vs veh, BDP1 / RFU, LRRCC1 / Fold change vs veh, LRRCC1 / RFU, ARID1A / Fold change vs veh, ARID1A / RFU, ZNF146 / Fold change vs veh, ZNF146 / RFU, ZNF330 / Fold change vs veh, ZNF330 / RFU, GPN3 / Fold change vs veh, GPN3 / RFU, C9orf123 / Fold change vs veh, C9orf123 / RFU, N4BP2L2 / Fold change vs veh, N4BP2L2 / RFU, ARFIP1 / Fold change vs veh, ARFIP1 / RFU, FAM179B / Fold change vs veh, FAM179B / RFU, BCL10 / Fold change vs veh, BCL10 / RFU, UHRF1BP1L / Fold change vs veh, UHRF1BP1L / RFU, BET1 / Fold change vs veh, BET1 / RFU, CNOT2 / Fold change vs veh, CNOT2 / RFU, ZNF268 / Fold change vs veh, ZNF268 / Fold change vs veh, ZNF507 / RFU, DGCR2 / Fold change vs veh, DGCR2 / RFU, WDSUB1 / Fold change vs veh, WDSUB1 / Fold change vs veh, HSP90B1 /// MIR3652 / RFU, ADSS / Fold change vs veh, ADSS / RFU, GK / Fold change vs veh, GK / RFU, ZNF148 / Fold change vs veh, ZNF148 / RFU, TAF9 / Fold change vs veh, TAF9 / RFU, SLC1A5 / Fold change vs veh, SLC1A5 / RFU, SLMO2 / Fold change vs veh, SLMO2 / RFU, ABCC4 / Fold change vs veh, ABCC4 / RFU, LOC101060439 /// RAP1B / Fold change vs veh, LOC101060439 /// RAP1B / RFU, RFX7 / Fold change vs veh, RFX7 / RFU, GTPBP10 / Fold change vs veh, GTPBP10 / RFU, CNEP1R1 / Fold change vs veh, CNEP1R1 / RFU, BIVM-ERCC5 /// ERCC5 / Fold change vs veh, BIVM-ERCC5 /// ERCC5 / RFU, ILF3 / Fold change vs veh, ILF3 / RFU 11762660_at / Fold change /veh 11762660_at / RFU VCAN (11757783_s_at) / Fold change /veh VCAN (11757783_s_at) / RFU DDX43 (11728927_at) / Fold change /veh DDX43 (11728927_at) / RFU KRT8 (11758188_x_at) / Fold change /veh KRT8 (11758188_x_at) / RFU NKD1 (11759106_at) / Fold change /veh NKD1 (11759106_at) / RFU SRD5A1 (11742802_a_at) / Fold change /veh SRD5A1 (11742802_a_at) / RFU TPSAB1 /// TPSB2 (11721975_s_at) / Fold change /veh TPSAB1 /// TPSB2 (11721975_s_at) / RFU GSTM3 (11746129_a_at) / Fold change /veh GSTM3 (11746129_a_at) / RFU IL23R (11737362_x_at) / Fold change /veh IL23R (11737362_x_at) / RFU TMEM51 (11727254_a_at) / Fold change /veh TMEM51 (11727254_a_at) / RFU PIWIL2 (11732686_x_at) / Fold change /veh PIWIL2 (11732686_x_at) / RFU ORM1 (11744905_x_at) / Fold change /veh ORM1 (11744905_x_at) / RFU CCDC152 (11743942_at) / Fold change /veh CCDC152 (11743942_at) / RFU ECM1 (11717891_a_at) / Fold change /veh ECM1 (11717891_a_at) / RFU IL23R (11748794_a_at) / Fold change /veh IL23R (11748794_a_at) / RFU TNFAIP8L3 (11732012_x_at) / Fold change /veh TNFAIP8L3 (11732012_x_at) / RFU MBOAT4 (11741988_at) / Fold change /veh MBOAT4 (11741988_at) / RFU 11764193_at / Fold change /veh 11764193_at / RFU TMEM53 (11763286_at) / Fold change /veh TMEM53 (11763286_at) / RFU MAGEB2 (11727129_at) / Fold change /veh MAGEB2 (11727129_at) / RFU TMEM200A (11744735_a_at) / Fold change /veh TMEM200A (11744735_a_at) / RFU CCDC152 (11751479_a_at) / Fold change /veh CCDC152 (11751479_a_at) / RFU FAM211A (11726209_a_at) / Fold change /veh FAM211A (11726209_a_at) / RFU RGS16 (11746705_a_at) / Fold change /veh RGS16 (11746705_a_at) / RFU VCAN (11755009_s_at) / Fold change /veh VCAN (11755009_s_at) / RFU RHOB (11743442_s_at) / Fold change /veh RHOB (11743442_s_at) / RFU RGS16 (11720943_a_at) / Fold change /veh RGS16 (11720943_a_at) / RFU RGS16 (11720944_at) / Fold change /veh RGS16 (11720944_at) / RFU, VPS4B / Fold change vs veh, VPS4B / RFU, CREB1 / Fold change vs veh, CREB1 / RFU, DNAJC13 / Fold change vs veh, DNAJC13 / RFU, GNAQ / Fold change vs veh, GNAQ / RFU, CDK5R1 / Fold change vs veh, CDK5R1 / RFU, ZRANB3 / Fold change vs veh, ZRANB3 / RFU, CUL4A / Fold change vs veh, CUL4A / RFU, CCNY / Fold change vs veh, CCNY / RFU, UFL1 / Fold change vs veh, UFL1 / RFU, COG3 / Fold change vs veh, COG3 / RFU, DIAPH2 / Fold change vs veh, DIAPH2 / RFU, SKA2 / Fold change vs veh, SKA2 / RFU, AFF3 / Fold change vs veh, AFF3 / RFU, LMF1 / Fold change vs veh, LMF1 / RFU, IPO11 / Fold change vs veh, IPO11 / RFU, DFFB / Fold change vs veh, DFFB / RFU, FOXP1 / Fold change vs veh, FOXP1 / RFU, CARD8 / Fold change vs veh, CARD8 / RFU, STRN3 / Fold change vs veh, STRN3 / RFU, ADK / Fold change vs veh, ADK / RFU, RASSF2 / Fold change vs veh, RASSF2 / RFU, WIPF1 / Fold change vs veh, WIPF1 / RFU, LARP1B / Fold change vs veh, LARP1B / RFU, RASA1 / Fold change vs veh, RASA1 / RFU, RB1 / Fold change vs veh, RB1 / RFU, PPFIA1 / Fold change vs veh, PPFIA1 / RFU, MAT2A / Fold change vs veh, MAT2A / RFU, CCT5 / Fold change vs veh, CCT5 / RFU, WDR92 / Fold change vs veh, WDR92 / RFU, CUX1 / Fold change vs veh, CUX1 / RFU, TTC7A / Fold change vs veh, TTC7A / RFU, TMEM135 / Fold change vs veh, TMEM135 / RFU, DEPTOR / Fold change vs veh, DEPTOR / RFU, CPM / Fold change vs veh, CPM / RFU, DNAJB6 / Fold change vs veh, DNAJB6 / RFU, CACNA2D3 / Fold change vs veh, CACNA2D3 / RFU, DTX4 / Fold change vs veh, DTX4 / RFU, TFCP2 / Fold change vs veh, TFCP2 / RFU, GMCL1 /// GMCL1P1 / Fold change vs veh, GMCL1 /// GMCL1P1 / RFU, AEBP2 / Fold change vs veh, AEBP2 / RFU, SNHG1 /// SNORD22 /// SNORD25 /// SNORD26 /// SNORD27 /// SNORD28 /// SNORD29 /// SNORD31 / Fold change vs veh, SNHG1 /// SNORD22 /// SNORD25 /// SNORD26 /// SNORD27 /// SNORD28 /// SNORD29 /// SNORD31 / Fold change (Aza/veh), C12orf56 (ProbeSet 11735607_a_at) / Fold change (ACY-1035/veh), C12orf56 (ProbeSet 11735607_a_at) / Fold change (Aza/veh), FGFR1OP (ProbeSet 11751329_s_at) / Fold change (ACY-1035/veh), FGFR1OP (ProbeSet 11751329_s_at) / Fold change (Aza/veh), VPS36 (ProbeSet 11739960_a_at) / Fold change (ACY-1035/veh), VPS36 (ProbeSet 11739960_a_at) / RFU SYPL1 (11715823_x_at) / Fold change /veh SYPL1 (11715823_x_at) / RFU IGFBP7 (11715501_s_at) / Fold change /veh IGFBP7 (11715501_s_at) / RFU REEP3 (11722064_at) / Fold change /veh REEP3 (11722064_at) / RFU IGLL1 (11728026_x_at) / Fold change /veh IGLL1 (11728026_x_at): dose or concentration left out as unconfirmed. The note with it: ProbeSet 11741199_a_at; LIST B. It counts as cell-based, human.

Each structure is given as a SMILES string.

These results are taken from publication PMC5218480 (PLoS ONE, 2017).

On to `Nc1ncn([C@@H]2O[C@H](CO)[C@@H](O)[C@H]2O)c(=O)n1` [azacitidine], for which the “RFU, LRRCC1” value is recorded as 65.24 RFU.
